In patent publication US20120178765A1, “NOVEL GLUCOKINASE ACTIVATORS AND PROCESSES FOR THE PREPARATION THEREOF” (YUHAN CORPORATION, priority 2009, published 2012) one finds EC50 data, which are given here for 36 compounds.

Where a name gives a salt, the structure may show the parent alone.

The target of the experiment is T1, Glucokinase (Homo sapiens, UniProt P35557).
T1 construct: purchased ProteinOne Inc
T1 sequence (P35557 1-465): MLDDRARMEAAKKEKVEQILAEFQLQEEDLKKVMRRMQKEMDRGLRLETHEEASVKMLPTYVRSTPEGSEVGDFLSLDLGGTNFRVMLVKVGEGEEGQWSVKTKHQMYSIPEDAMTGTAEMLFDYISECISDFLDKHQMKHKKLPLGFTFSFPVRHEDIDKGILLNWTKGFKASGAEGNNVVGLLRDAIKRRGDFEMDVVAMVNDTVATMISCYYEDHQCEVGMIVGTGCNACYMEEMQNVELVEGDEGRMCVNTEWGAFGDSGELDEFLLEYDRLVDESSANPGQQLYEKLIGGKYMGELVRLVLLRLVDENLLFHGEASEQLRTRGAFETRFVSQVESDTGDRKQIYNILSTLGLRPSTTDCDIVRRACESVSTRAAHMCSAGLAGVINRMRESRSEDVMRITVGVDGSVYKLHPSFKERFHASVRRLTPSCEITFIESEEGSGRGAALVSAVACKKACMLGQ
Briefly: Glucokinase activation assay (NADPH absorbance at 340 nm). It counts as biochemical. Conditions: glucokinase (ProteinOne Inc.), 5 mM D(+)-glucose, 24° C., 90 minutes. On the procedure: The amounts of glucokinase activation were determined by measuring the levels of NADPH (the final metabolite of glucose through glucokinase-mediated phospho-rylation) and then calculating to glucokinase activities.
Glucokinase (ProteinOne Inc.) was added, in the concentration of 100 ng/uL, to a enzyme-reaction medium (25 mM HEPES pH 7, 25 mM KCL, 1 mM MgCl, 5 mM D(+)-glucose, 1 mM ATP, 1 mM NADP, 1 mM DTT, and 2.5 u/mL G6PDH). Each compound in predetermined concentrations was added to the enzyme-reaction medium and then absorbance (First Absorbance) was measured at 340 nm of wavelength. After measuring the first absorbance, each reaction mixture was incubated at 24° C. for 90 minutes and then absorbance (Second Absorbance) was re-measured at 340 nm of wavelength. Using changes between First Absorbance and Second Absorbance, glucokinase activity was calculated. In the calculation, a maximum activity of the test compound (Emax), in comparison to the control group (no treatment of compound) was determined and then EC50 was calculated using the software for statistical analysis “Prism”, based on the activity-changes according to concentrations of the test compounds.
The amounts of glucokinase activation of the compounds of Comparative Examples 1 and 2 were determined, in accordance with the same procedures as in Test Example 1.
In general, EC50 refers to the concentration that produces a half-maximal response. For “3-[trans-2-(2,4-difluorophenyl)vinyl]-5-(2-methoxy-(1S)-methyl-ethoxy)-N-(pyrazin-2-yl)-benzamide [Example 56]”, it took 301 nM to reach a half-maximal effect (EC50). This counts as sub-micromolar.
In turn, “3-[2-(2-methoxyphenyl)ethyl]-5-(2-methoxy-(1S)-methyl-ethoxy)-N-(thiazol-2-yl)-benzamide [Example 89]” returned a concentration for a half-maximal effect (EC50) of 28.4 nM.
For “3-[trans-2-(3-bromophenyl)vinyl]-5-(2-methoxy-(1S)-methyl-ethoxy)-N-(pyrazin-2-yl)-benzamide [Example 59]” the value was 377 nM; for `COc1cccc(/C=C/c2cc(OCC(C)C)cc(C(=O)Nc3nccs3)c2)c1OC` [Example 5, 3-[trans-2-(2,3-dimethoxyphenyl)vinyl]-5-isobutoxy-N-(thiazol-2-yl)-benzamide], 173 nM.
Turning to “3-{2-[3-(4-nitrobenzoylamino)phenyl]ethyl}-5-(2-methoxy-(1S)-methyl-ethoxy)-N-(thiazol-2-yl)-benzamide [Example 127]”, the concentration giving a half-maximal response (EC50) turned out to be 266 nM. This EC50 lies about 1.5-fold higher than the previous one.
Consider “3-{2-[3-(4-fluorobenzoylamino)phenyl]ethyl}-5-(2-methoxy-(1S)-methyl-ethoxy)-N-(thiazol-2-yl)-benzamide [Example 125]”, for which a half-maximal response (EC50) required 340 nM.
With `CC(C)COc1cc(/C=C/c2cc(F)ccc2F)cc(C(=O)Nc2nccs2)c1` [Example 71, 3-[trans-2-(2,5-difluorophenyl)vinyl]-5-isobutoxy-N-(thiazol-2-yl)-benzamide] the figure was 84.8 nM.
On to “3-{2-[3-(phenylacetylamino)phenyl]ethyl}-5-(2-methoxy-(1S)-methyl-ethoxy)-N-(thiazol-2-yl)-benzamide [Example 123]”, for which the midpoint of the response, the EC50, lay at 225 nM.
Consider “3-[2-(2,4-dimethoxyphenyl)ethyl]-5-(2-methoxy-(1S)-methyl-ethoxy)-N-(pyrazin-2-yl)-benzamide [Example 105]”, for which the 50% effective concentration (EC50) came to 298 nM.
With “3-{2-[4-(3,5-dimethoxybenzoylamino)phenyl]ethyl}-5-(2-methoxy-(1S)-methyl-ethoxy)-N-(thiazol-2-yl)-benzamide [Example 141]” the figure was 355 nM; with “3-{2-[3-(3-methyl-butyrylamino)phenyl]ethyl}-5-(2-methoxy-(1S)-methyl-ethoxy)-N-(thiazol-2-yl)-benzamide [Example 120]”, 473 nM.
With “3-[trans-2-(2,4-difluorophenyl)vinyl]-5-(2-methoxy-(1S)-methyl-ethoxy)-N-(1-methyl-1H-pyrazol-3-yl)-benzamide [Example 35]” the figure was 109 nM; with “3-[trans-2-(2-methoxyphenyl)vinyl]-5-(2-methoxy-(1S)-methyl-ethoxy)-N-(1-methyl-1H-pyrazol-3-yl)-benzamide [Example 83]”, 115 nM; with “3-[trans-2-(2,5-difluorophenyl)vinyl]-5-(2-methoxy-(1S)-methyl-ethoxy)-N-(pyrazin-2-yl)-benzamide [Example 57]”, 283 nM.
Consider “3-[trans-2-(2,3,5-trifluorophenyl)vinyl]-5-(2-methoxy-(1S)-methyl-ethoxy)-N-(5-fluorothiazol-2-yl)-benzamide [Example 27]”, for which it took 86.6 nM to reach a half-maximal effect (EC50).
With “3-[trans-2-(2-chlorophenyl)vinyl]-5-(2-methoxy-(1S)-methyl-ethoxy)-N-(pyrazin-2-yl)-benzamide [Example 53]” the figure was 503 nM.
In turn, “3-[trans-2-(2-methoxyphenyl)vinyl]-5-(2-methoxy-(1S)-methyl-ethoxy)-N-(1-methyl-1 H-pyrazol-3-yl)-benzamide [Example 42]” displayed an EC50 of 115 nM.
For “3-[trans-2-(2,6-difluorophenyl)vinyl]-5-(2-methoxy-(1S)-methyl-ethoxy)-N-(pyrazin-2-yl)-benzamide [Example 58]”, it took 212 nM to reach a half-maximal effect (EC50).
Compound “3-{2-[4-(3-ethyl-thio-ureido)phenyl]ethyl}-5-(2-methoxy-(1S)-methyl-ethoxy)-N-(thiazol-2-yl)-benzamide [Example 146]” yielded an EC50 of 454 nM.
On to “3-[trans-2-(2,3-difluorophenyl)vinyl]-5-(2-methoxy-(1S)-methyl-ethoxy)-N-(pyrazin-2-yl)-benzamide [Example 55]”, for which the 50% effective concentration (EC50) was 346 nM. The EC50 values of the last two compounds are within 1.5-fold of each other.
For `COC[C@H](C)Oc1cc(CCc2cccc(N)c2)cc(C(=O)Nc2ccn(C)n2)c1` [Example 97, 3-[2-(3-aminophenyl)ethyl]-5-(2-methoxy-(1S)-methyl-ethoxy)-N-(1-methyl-1-pyrazol-3-yl)-benzamide] the value was 415 nM; for `COC[C@H](C)Oc1cc(/C=C/c2ccc(F)cc2F)cc(C(=O)Nc2ccc(C(=O)O)cn2)c1` [Example 79, 3-[trans-2-(2,4-difluorophenyl)vinyl]-5-(2-methoxy-(1S)-methyl-ethoxy)-N-(nicotinic acid-6-yl)-benzamide], 95.1 nM; for `COC[C@H](C)Oc1cc(/C=C/c2ccc(F)cc2F)cc(C(=O)Nc2ccc(C(=O)OC)cn2)c1` [Example 67, 3-[trans-2-(2,4-difluorophenyl)vinyl]-5-(2-methoxy-(1S)-methyl-ethoxy)-N-(nicotinic acid-3-methyl ester-6-yl)-benzamide], 231 nM.
With “3-[2-(2,5-difluorophenyl)ethyl]-5-(2-methoxy-(1S)-methyl-ethoxy)-N-(thiazol-2-yl)-benzamide [Example 86]” the figure was 36.6 nM; with `CCC(COC)Oc1cc(/C=C/c2ccc(F)cc2)cc(C(=O)Nc2nccs2)c1` (stereo not drawn) [Example 148, 3-[trans-2-(4-fluorophenyl)vinyl]-5-(1-methoxymethyl-propoxy)-N-(thiazol-2-yl)-benzamide], 417 nM.
`COC[C@H](C)Oc1cc(/C=C/c2cccc([N+](=O)[O-])c2)cc(C(=O)Nc2ccc(C(=O)O)cn2)c1` [Example 75, 3-[trans-2-(3-nitrophenyl)vinyl]-5-(2-methoxy-(1S)-methyl-ethoxy)-N-(nicotinic acid-6-yl)-benzamide]: it took 165 nM to reach a half-maximal effect (EC50). Against the preceding compound, the EC50 is about 2.5-fold lower.
The compound “3-[trans-2-(4-nitrophenyl)vinyl]-5-(2-methoxy-(1S)-methyl-ethoxy)-N-(5-fluorothiazol-2-yl)-benzamide [Example 21]” registered a concentration giving a half-maximal response (EC50) of 336 nM.
In the case of `COC[C@H](C)Oc1cc(/C=C/c2ccccc2F)cc(C(=O)Nc2ccc(C(=O)OC)cn2)c1` [Example 64, 3-[trans-2-(2-fluorophenyl)vinyl]-5-(2-methoxy-(1S)-methyl-ethoxy)-N-(nicotinic acid-3-methyl ester-6-yl)-benzamide], the response was half-maximal at 159 nM (EC50). Compared with the last compound, the EC50 is about 2.1-fold lower.
As for `CCOC(=O)CC(=O)Nc1cccc(CCc2cc(O[C@@H](C)COC)cc(C(=O)Nc3nccs3)c2)c1` [Example 121, 3-{2-[3-(malonamic acid ethyl ester)phenyl]ethyl}-5-(2-methoxy-(1S)-methyl-ethoxy)-N-(thiazol-2-yl)-benzamide], the midpoint of the response, the EC50, lay at 170 nM.
The compound “3-[2-(3,5-dimethoxyphenyl)ethyl]-5-(2-methoxy-(1S)-methyl-ethoxy)-N-(1-methyl-1H-pyrazol-3-yl)-benzamide [Example 99]” registered an EC50 of 117 nM.
With `COC[C@H](C)Oc1cc(/C=C/c2c(F)cccc2F)cc(C(=O)Nc2ccc(C(=O)OC)cn2)c1` [Example 69, 3-[trans-2-(2,6-difluorophenyl)vinyl]-5-(2-methoxy-(1S)-methyl-ethoxy)-N-(nicotinic acid-3-methyl ester-6-yl)-benzamide] the figure was 146 nM; with “3-[2-(2-chlorophenyl)ethyl]-5-(2-methoxy-(1S)-methyl-ethoxy)-N-(1-methyl-1H-pyrazol-3-yl)-benzamide [Example 101]”, 85.6 nM; with `COC[C@H](C)Oc1cc(CCc2cccc(N)c2)cc(C(=O)Nc2nccs2)c1` [Example 111, 3-[2-(3-aminophenyl)ethyl]-5-(2-methoxy-(1S)-methyl-ethoxy)-N-(thiazol-2-yl)-benzamide hydrochloride], 54.7 nM.
With “3-[trans-2-(2,5-difluorophenyl)vinyl]-5-(2-methoxy-(1S)-methyl-ethoxy)-N-(thiazol-2-yl)-benzamide [Example 11]” the figure was 30.9 nM; with “3-[trans-2-(2-fluorophenyl)vinyl]-5-(2-methoxy-(1S)-methyl-ethoxy)-N-(1-methyl-1H-pyrazol-3-yl)-benzamide [Example 33]”, 79.8 nM.
As to “3-{2-[4-(2-(thiophen-2-yl)acetylamino)phenyl]ethyl}-5-(2-methoxy-(1S)-methyl-ethoxy)-N-(thiazol-2-yl)-benzamide [Example 143]”, the half-maximal effective concentration (EC50) stood at 284 nM.
